We go through five molecules from patent US20260297542A1, “HERBICIDE RESISTANT PLANTS” (SYNGENTA CROP PROTECTION AG, priority 2023, published 2026).

The target in assay [1] is T1, AtPPO1 S305L G404A L479N (SEQ ID NO.137) (Arabidopsis thaliana, UniProt P55826, G404A/L479N/S305L).
T1 construct: made in house; host or cells: E. coli BL21 (DE3) hemG, crude extract
T1 sequence (P55826 35-537 S305L/G404A/L479N): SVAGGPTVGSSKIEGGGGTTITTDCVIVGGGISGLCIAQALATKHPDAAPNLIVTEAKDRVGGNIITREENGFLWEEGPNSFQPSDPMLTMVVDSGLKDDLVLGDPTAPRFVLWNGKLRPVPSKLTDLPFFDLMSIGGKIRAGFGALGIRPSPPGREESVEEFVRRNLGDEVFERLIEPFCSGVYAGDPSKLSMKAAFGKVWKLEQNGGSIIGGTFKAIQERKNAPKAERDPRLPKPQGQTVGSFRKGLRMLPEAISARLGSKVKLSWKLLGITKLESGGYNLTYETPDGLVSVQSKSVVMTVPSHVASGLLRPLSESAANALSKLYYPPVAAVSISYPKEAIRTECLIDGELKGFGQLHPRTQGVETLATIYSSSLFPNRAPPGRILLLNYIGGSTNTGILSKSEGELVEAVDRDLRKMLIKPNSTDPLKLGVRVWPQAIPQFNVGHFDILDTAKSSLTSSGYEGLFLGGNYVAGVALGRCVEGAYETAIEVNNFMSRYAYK
As to the kind of experiment: fluorescent Protoporphyrinogen Oxidase assay, crude extract. Particulars: read-out: percentage inhibition. It counts as biochemical. As for the experimental part: (§1) A pET24 plasmid containing a DNA sequence encoding each identified variant mutant of AtPPO1 derived from Arabidopsis thaliana, codon-optimised for expression in E. coli, and under control of a T7 promoter, was synthesised by Twist Bioscience. This plasmid was expressed in E. coli BL21 (DE3) hemG with 50 μg/mL kanamycin and 25 μg/mL chloramphenicol selection. Overnight cultures grown at 37° C. were used to inoculate 150 ml AIM (AIM-Terrific Broth Base including Trace elements, Formedium) in 500 ml shake flasks at a ratio of 1:100. Cultures were grown at 37° C., 200 rpm for 3 hours and then overnight at 26° C. Cells were harvested by 4° C. centrifugation for 20 minutes at 600 rpm. Cells were stored at −80° C. until extraction. 0.5-1 g of cell pellet from was thawed and resuspended in ratio of 1:1 in lysis buffer (20 mM Tris pH8, 500 mM sodium chloride, 10% glycerol, 1× complete Protease EDTA-free Inhibitor Tablet (Roche)). The resuspension was sonicated at 50% using 10-20 cycles of 10 seconds, 20 seconds off. After sonication Triton X-100 was added to the lysates at a final concentration of 0.5%. The lysates were centrifuged at 13.00 rpm for 10 min at 4° C. The crude extracts (i.e, supernatants) were stored at −80° C. Protein concentration was measured and calculated using the absorbance at 280 nm. Extracts were diluted 1 in 4 and 10 uL was analysed by SDS PAGE.
(§2) Variant crude extracts were assayed in a fluorescent Protoporphyrinogen Oxidase assay in black 384 well plates with a clear bottom. The total volume of the reaction mixture was 100 ul and contained 100 mM K2HPO4 pH7.2, 1 mM Na2EDTA, 5 mM DTT, 20% glycerol (v/v), 0.025% Tween 20 (v/v). Reactions were started with addition of 1 uM protoporphyrinogen IX final assay concentration. Fluorescence was monitored over 30 min using a Tecan plate reader with an excitation wavelength of 405 nm, emission wavelength of 635 nm, gain of 90 and 15 flashes. 10 ul of 3-fold serial dilution of crude extract in 100 mM K2HPO4 pH7.2, 1 mM Na2EDTA, 5 mM DTT, 20% glycerol (v/v), 0.05% Tween 20 (v/v) was tested in the assay against 1% DMSO and 100 ppm herbicide B to determine the correct amount of crude extract to add to the assay to observe activity. 10 ul of the appropriate crude extract dilution was then tested in the fluorescent Protoporphyrinogen Oxidase assay against DMSO and 10-fold dose response of each compound (herbicides A to E) with a top rate of 100 ppm.
(§3) The percentage inhibition was calculated as the activity in the presence of one of four concentrations of each herbicide compound A to E (note that the compounds labelled as A to E are identified hereinabove in the relevant section of the description) as a percentage of the enzyme activity in DMSO (Table 5).

Assay [2] deals with T2, AtPPO1 Y361D V365L (SEQ ID NO.135) (Arabidopsis thaliana, UniProt P55826, V365L/Y361D).
T2 construct: made in house; host or cells: E. coli BL21 (DE3) hemG, crude extract
T2 sequence (P55826 35-537 Y361D/V365L): T1 sequence (P55826 35-537 S305L/G404A/L479N) with L271S, Y327D, V331L, A370G, N445L
The assay is described as above. It counts as biochemical. The conditions noted are these: for inhibition at 0.1 ppm / inhibition at 1 ppm / inhibition at 10 ppm / inhibition at 100 ppm: read-out: percentage inhibition; for improvement over SEQ ID NO:124: AtPPO1 Y361D V365L (SEQ ID NO:135) vs SEQ ID NO:124. As to the method:
as §1, §2, §3

Positions count from the first letter of the chain named.

Broadly, the inhibition is the change of the read-out against control, counted positive when it falls. For the molecule `CCOC(=O)COc1ncccc1Oc1cc(-n2c(=O)cc(C(F)(F)F)n(C)c2=O)c(F)cc1Cl` [Herbicide A, epyrifenacil], in assay [1], the inhibition at 0.1 ppm was found to be 24%, the inhibition at 1 ppm came out at 93%, the inhibition at 10 ppm is 100% and the inhibition at 100 ppm came out at 100%. Also, in assay [2], the inhibition at 0.1 ppm was 56%, the inhibition at 1 ppm came out at 89%, the inhibition at 10 ppm is 99% and the inhibition at 100 ppm is 96%.
With `C#CCN1C(=O)C(F)(F)Oc2cc(F)c(-n3c(=O)n(C)c(=S)n(C)c3=O)cc21` [Herbicide B, trifludimoxazin], in assay [1], the inhibition at 0.1 ppm amounted to 77%, the inhibition at 1 ppm came out at 98%, the inhibition at 10 ppm worked out at 100% and the inhibition at 100 ppm was 100%. In assay [2], the “improvement over SEQ ID NO:124” value is recorded as “improvement over SEQ ID NO:124 was seen”, the inhibition at 0.1 ppm is 82%, the inhibition at 1 ppm came out at 100% and the inhibition at 10 ppm came out at 100%. Also, the inhibition at 100 ppm in assay [2] was found to be 100%.
Take `CCOC(=O)C1(C)CC(c2cc(-n3c(=O)cc(C(F)(F)F)n(C)c3=O)c(F)cc2Cl)=NO1` (centres unmarked) [Herbicide C, 3-(2-chloro-4-fluoro-5-(3-methyl-2,6-dioxo-4-trifluoromethyl-3,6-dihydropyrimidin-1(2H)-yl)phenyl)-5-methyl-4,5-dihydroisoxazole-5-carboxylic acid ethyl ester]: in assay [1], the inhibition at 0.1 ppm was 26%, the inhibition at 1 ppm was 90%, the inhibition at 10 ppm stood at 100% and the inhibition at 100 ppm came to 100%. In assay [2], the “improvement over SEQ ID NO:124” value is listed as “improvement over SEQ ID NO:124 was seen”, the inhibition at 0.1 ppm was determined as 30%, the inhibition at 1 ppm is 84% and the inhibition at 10 ppm amounted to 94%. Also, in assay [2], the inhibition at 100 ppm turned out to be 100%.
Turning to `CCOC(=O)[C@]1(C)CC(c2cc(-n3c(=O)n(C)c(=S)n(C)c3=O)c(F)cc2Cl)=NO1` [Herbicide D, ethyl (5S)-3-[2-chloro-5-(3,5-dimethyl-2,6-dioxo-4-thioxo-1,3,5-triazinan-1-yl)-4-fluoro-phenyl]-5-methyl-4H-isoxazole-5-carboxylate], in assay [1], the inhibition at 0.1 ppm worked out at 12%, the inhibition at 1 ppm came out at 58%, the inhibition at 10 ppm turned out to be 98% and the inhibition at 100 ppm was 100%. Moreover, in assay [2], the “improvement over SEQ ID NO:124” value was “improvement over SEQ ID NO:124 was seen”, the inhibition at 0.1 ppm was 2%, the inhibition at 1 ppm was 63% and the inhibition at 10 ppm was 93%. The inhibition at 100 ppm in assay [2] was 100%.
In the case of `CC(C)N(C)S(=O)(=O)NC(=O)c1cc(-n2c(=O)cc(C(F)(F)F)n(C)c2=O)c(F)cc1Cl` [Herbicide E, saflufenacil], in assay [1], the inhibition at 0.1 ppm came out at 22%, the inhibition at 1 ppm was found to be 66%, the inhibition at 10 ppm is 100% and the inhibition at 100 ppm is 96%. For the same molecule, in assay [2], the “improvement over SEQ ID NO:124” value is “improvement over SEQ ID NO:124 was seen”, the inhibition at 0.1 ppm is 0%, the inhibition at 1 ppm was determined as 31% and the inhibition at 10 ppm turned out to be 83%. Also, in assay [2], the inhibition at 100 ppm was 100%.
